Experimental data: the CheMixHub viscosity set
± gives the uncertainty stated by the source.

Assay: xn = mol fraction of the nth substance listed

`O=C(O)C(Cl)(Cl)Cl` + CC(=O)O showed a viscosity (298.15 K, 101 kPa, x1 = 0.0737) of 1.532 ± 0.04 mPa·s, a viscosity (298.15 K, 101 kPa, x1 = 0.1777) of 2.228 ± 0.059 mPa·s and a viscosity (298.15 K, 101 kPa, x1 = 0.3209) of 3.362 ± 0.089 mPa·s. It also gave a viscosity (298.15 K, 101 kPa, x1 = 0.4348) of 4.346 ± 0.12 mPa·s, a viscosity (298.15 K, 101 kPa, x1 = 0.5262) of 5.176 ± 0.14 mPa·s and a viscosity (298.15 K, 101 kPa, x1 = 0.5853) of 5.859 ± 0.16 mPa·s. The viscosity (298.15 K, 101 kPa, x1 = 0.6581) was 6.854 ± 0.18 mPa·s.
Compound `CCCCN` + CCC(=O)O has a viscosity (293.15 K, 101 kPa, x2 = 0.2) of 1.82 ± 0.22 mPa·s, a viscosity (293.15 K, 101 kPa, x2 = 0.3) of 15.13 ± 0.58 mPa·s and a viscosity (293.15 K, 101 kPa, x2 = 0.4) of 63.74 ± 6.6 mPa·s. For the same compound, the viscosity (293.15 K, 101 kPa, x2 = 0.5) was 0.5662 mPa·s, the viscosity (293.15 K, 101 kPa, x2 = 0.6) was 178 ± 5.3 mPa·s and the viscosity (293.15 K, 101 kPa, x2 = 0.7) was 54.56 ± 1.2 mPa·s. For the same compound, the viscosity (293.15 K, 101 kPa, x2 = 0.75) was 30.14 ± 0.42 mPa·s, the viscosity (293.15 K, 101 kPa, x2 = 0.8) was 18.72 ± 0.19 mPa·s and the viscosity (293.15 K, 101 kPa, x2 = 0.875) was 5.08 ± 0.04 mPa·s. The viscosity (298.15 K, 101 kPa, x2 = 0.2) was 1.75 ± 0.01 mPa·s, the viscosity (298.15 K, 101 kPa, x2 = 0.3) was 12.72 ± 0.13 mPa·s and the viscosity (298.15 K, 101 kPa, x2 = 0.4) was 51.68 ± 0.93 mPa·s. It also gave a viscosity (298.15 K, 101 kPa, x2 = 0.5) of 0.4002 mPa·s, a viscosity (298.15 K, 101 kPa, x2 = 0.6) of 137.5 ± 1.7 mPa·s and a viscosity (298.15 K, 101 kPa, x2 = 0.7) of 43.2 ± 0.5 mPa·s. It also gave a viscosity (298.15 K, 101 kPa, x2 = 0.75) of 25.03 ± 0.25 mPa·s, a viscosity (298.15 K, 101 kPa, x2 = 0.8) of 15.68 ± 0.14 mPa·s and a viscosity (298.15 K, 101 kPa, x2 = 0.875) of 4.48 ± 0.04 mPa·s. It also gave a viscosity (303.15 K, 101 kPa, x2 = 0.2) of 1.63 ± 0.01 mPa·s, a viscosity (303.15 K, 101 kPa, x2 = 0.3) of 10.92 ± 0.1 mPa·s and a viscosity (303.15 K, 101 kPa, x2 = 0.4) of 41.89 ± 0.7 mPa·s. For the same compound, the viscosity (303.15 K, 101 kPa, x2 = 0.6) was 107.7 ± 1.3 mPa·s, the viscosity (303.15 K, 101 kPa, x2 = 0.7) was 35.21 ± 0.38 mPa·s and the viscosity (303.15 K, 101 kPa, x2 = 0.75) was 20.17 ± 0.19 mPa·s. It also gave a viscosity (303.15 K, 101 kPa, x2 = 0.8) of 13 ± 0.11 mPa·s, a viscosity (303.15 K, 101 kPa, x2 = 0.875) of 4.05 ± 0.03 mPa·s and a viscosity (308.15 K, 101 kPa, x2 = 0.2) of 1.56 ± 0.01 mPa·s. It also gave a viscosity (308.15 K, 101 kPa, x2 = 0.3) of 9.48 ± 0.09 mPa·s, a viscosity (308.15 K, 101 kPa, x2 = 0.4) of 34.98 ± 0.54 mPa·s and a viscosity (308.15 K, 101 kPa, x2 = 0.6) of 85.1 ± 0.9 mPa·s. For the same compound, the viscosity (308.15 K, 101 kPa, x2 = 0.7) was 29.21 ± 0.3 mPa·s, the viscosity (308.15 K, 101 kPa, x2 = 0.75) was 17.49 ± 0.14 mPa·s and the viscosity (308.15 K, 101 kPa, x2 = 0.8) was 11.15 ± 0.09 mPa·s. The viscosity (308.15 K, 101 kPa, x2 = 0.875) was 3.57 ± 0.03 mPa·s, the viscosity (313.15 K, 101 kPa, x2 = 0.2) was 1.44 ± 0.01 mPa·s and the viscosity (313.15 K, 101 kPa, x2 = 0.3) was 8.34 ± 0.07 mPa·s. The viscosity (313.15 K, 101 kPa, x2 = 0.4) was 29.06 ± 0.42 mPa·s, the viscosity (313.15 K, 101 kPa, x2 = 0.5) was 176.5 ± 2.1 mPa·s and the viscosity (313.15 K, 101 kPa, x2 = 0.6) was 71.2 ± 0.7 mPa·s. For the same compound, the viscosity (313.15 K, 101 kPa, x2 = 0.7) was 24.51 ± 0.24 mPa·s, the viscosity (313.15 K, 101 kPa, x2 = 0.75) was 15.02 ± 0.13 mPa·s and the viscosity (313.15 K, 101 kPa, x2 = 0.875) was 3.09 ± 0.02 mPa·s. The viscosity (313.5 K, 101 kPa, x2 = 0.8) was 9.51 ± 0.08 mPa·s, the viscosity (318.15 K, 101 kPa, x2 = 0.2) was 1.41 ± 0.01 mPa·s and the viscosity (318.15 K, 101 kPa, x2 = 0.3) was 7.31 ± 0.06 mPa·s. It also gave a viscosity (318.15 K, 101 kPa, x2 = 0.4) of 24.58 ± 0.33 mPa·s, a viscosity (318.15 K, 101 kPa, x2 = 0.5) of 136.6 ± 1.5 mPa·s and a viscosity (318.15 K, 101 kPa, x2 = 0.6) of 57.9 ± 0.6 mPa·s. The viscosity (318.15 K, 101 kPa, x2 = 0.7) was 20.64 ± 0.19 mPa·s, the viscosity (318.15 K, 101 kPa, x2 = 0.75) was 12.59 ± 0.1 mPa·s and the viscosity (318.15 K, 101 kPa, x2 = 0.8) was 8.34 ± 0.06 mPa·s. The viscosity (318.15 K, 101 kPa, x2 = 0.875) was 2.86 ± 0.02 mPa·s, the viscosity (323.15 K, 101 kPa, x2 = 0.3) was 6.66 ± 0.06 mPa·s and the viscosity (323.15 K, 101 kPa, x2 = 0.4) was 21.02 ± 0.27 mPa·s. The viscosity (323.15 K, 101 kPa, x2 = 0.5) was 112.7 ± 1.2 mPa·s, the viscosity (323.15 K, 101 kPa, x2 = 0.6) was 47.7 ± 0.5 mPa·s and the viscosity (323.15 K, 101 kPa, x2 = 0.7) was 17.83 ± 0.16 mPa·s. The viscosity (323.15 K, 101 kPa, x2 = 0.75) was 11.15 ± 0.08 mPa·s, the viscosity (323.15 K, 101 kPa, x2 = 0.8) was 7.33 ± 0.05 mPa·s and the viscosity (323.15 K, 101 kPa, x2 = 0.875) was 2.73 ± 0.02 mPa·s.
In the case of `CCCCN` + CCCCCCCO, the viscosity (303.15 K, 101.33 kPa, x1 = 0.0997) is reported as 4.157 ± 0.032 mPa·s, the viscosity (303.15 K, 101.33 kPa, x1 = 0.122) is reported as 3.964 ± 0.029 mPa·s and the viscosity (303.15 K, 101.33 kPa, x1 = 0.1998) is reported as 3.439 ± 0.026 mPa·s. The viscosity (303.15 K, 101.33 kPa, x1 = 0.201) was 3.328 ± 0.026 mPa·s, the viscosity (303.15 K, 101.33 kPa, x1 = 0.2914) was 2.866 ± 0.022 mPa·s and the viscosity (303.15 K, 101.33 kPa, x1 = 0.3) was 2.671 ± 0.022 mPa·s. It also gave a viscosity (303.15 K, 101.33 kPa, x1 = 0.4035) of 2.125 ± 0.018 mPa·s, a viscosity (303.15 K, 101.33 kPa, x1 = 0.4133) of 2.169 ± 0.016 mPa·s and a viscosity (303.15 K, 101.33 kPa, x1 = 0.4897) of 1.797 ± 0.014 mPa·s. For the same compound, the viscosity (303.15 K, 101.33 kPa, x1 = 0.5) was 1.669 ± 0.014 mPa·s, the viscosity (303.15 K, 101.33 kPa, x1 = 0.6006) was 1.294 ± 0.011 mPa·s and the viscosity (303.15 K, 101.33 kPa, x1 = 0.6172) was 1.284 ± 0.01 mPa·s. The viscosity (303.15 K, 101.33 kPa, x1 = 0.7002) was 0.975 ± 0.009 mPa·s, the viscosity (303.15 K, 101.33 kPa, x1 = 0.7147) was 0.9851 ± 0.0079 mPa·s and the viscosity (303.15 K, 101.33 kPa, x1 = 0.8001) was 0.77 ± 0.007 mPa·s. It also gave a viscosity (303.15 K, 101.33 kPa, x1 = 0.8091) of 0.761 ± 0.0063 mPa·s, a viscosity (303.15 K, 101.33 kPa, x1 = 0.8999) of 0.606 ± 0.006 mPa·s and a viscosity (303.15 K, 101.33 kPa, x1 = 0.907) of 0.5793 ± 0.0051 mPa·s. The viscosity (313.15 K, 101.33 kPa, x1 = 0.0997) was 3.079 ± 0.024 mPa·s, the viscosity (313.15 K, 101.33 kPa, x1 = 0.122) was 2.931 ± 0.022 mPa·s and the viscosity (313.15 K, 101.33 kPa, x1 = 0.1998) was 2.557 ± 0.019 mPa·s. For the same compound, the viscosity (313.15 K, 101.33 kPa, x1 = 0.201) was 2.535 ± 0.02 mPa·s, the viscosity (313.15 K, 101.33 kPa, x1 = 0.2914) was 2.134 ± 0.016 mPa·s and the viscosity (313.15 K, 101.33 kPa, x1 = 0.3) was 2.069 ± 0.017 mPa·s. It also gave a viscosity (313.15 K, 101.33 kPa, x1 = 0.4035) of 1.684 ± 0.014 mPa·s, a viscosity (313.15 K, 101.33 kPa, x1 = 0.4133) of 1.636 ± 0.013 mPa·s and a viscosity (313.15 K, 101.33 kPa, x1 = 0.4897) of 1.363 ± 0.011 mPa·s. It also gave a viscosity (313.15 K, 101.33 kPa, x1 = 0.5) of 1.336 ± 0.012 mPa·s, a viscosity (313.15 K, 101.33 kPa, x1 = 0.6006) of 1.056 ± 0.009 mPa·s and a viscosity (313.15 K, 101.33 kPa, x1 = 0.6172) of 0.9879 ± 0.008 mPa·s. The viscosity (313.15 K, 101.33 kPa, x1 = 0.7002) was 0.797 ± 0.007 mPa·s, the viscosity (313.15 K, 101.33 kPa, x1 = 0.7147) was 0.7769 ± 0.0065 mPa·s and the viscosity (313.15 K, 101.33 kPa, x1 = 0.8001) was 0.655 ± 0.006 mPa·s. For the same compound, the viscosity (313.15 K, 101.33 kPa, x1 = 0.8091) was 0.6198 ± 0.0054 mPa·s, the viscosity (313.15 K, 101.33 kPa, x1 = 0.8999) was 0.518 ± 0.005 mPa·s and the viscosity (313.15 K, 101.33 kPa, x1 = 0.907) was 0.4903 ± 0.0044 mPa·s. It also gave a viscosity (323.15 K, 101.33 kPa, x1 = 0.0997) of 2.366 ± 0.019 mPa·s, a viscosity (323.15 K, 101.33 kPa, x1 = 0.201) of 1.993 ± 0.016 mPa·s and a viscosity (323.15 K, 101.33 kPa, x1 = 0.3) of 1.627 ± 0.014 mPa·s. For the same compound, the viscosity (323.15 K, 101.33 kPa, x1 = 0.4035) was 1.346 ± 0.011 mPa·s, the viscosity (323.15 K, 101.33 kPa, x1 = 0.5) was 1.094 ± 0.01 mPa·s and the viscosity (323.15 K, 101.33 kPa, x1 = 0.6006) was 0.879 ± 0.008 mPa·s. It also gave a viscosity (323.15 K, 101.33 kPa, x1 = 0.7002) of 0.676 ± 0.006 mPa·s, a viscosity (323.15 K, 101.33 kPa, x1 = 0.8001) of 0.563 ± 0.006 mPa·s and a viscosity (323.15 K, 101.33 kPa, x1 = 0.8999) of 0.451 ± 0.005 mPa·s.
